Source: patent US7307063B2, “Melanocortin metallopeptides for treatment of sexual dysfunction” (Palatin Technologies, Inc., priority 2001, dated 2007)
“And” between values parts separate entries of the source, which are not always exact repeats. Equal entries are not always repeated. Non-standard residues stand in square brackets, D forms with d. No end group written: not given here. *: point of attachment. Desaminotyrosyl = O=C(CCc1ccc(O)cc1)*; Ac6c = NC1(C(=O)O)CCCCC1; Ac5c = NC1(C(=O)O)CCCC1

What was measured:
MC1-R = target: T1, MC1-R (Mus musculus, UniProt Q01727); test: Competitive binding assay: inhibition of 125I-NDP-α-MSH binding to membranes from B16-F10 mouse melanoma cells; conditions: Table 6; 1 μM; mean of triplicate
T1 construct: MC1-R membranes were isolated from B16—F10 mouse melanoma cells; endogenous in cells; host or cells: B16-F10 mouse melanoma cells
Protocol: (§1) Rhenium-complexed metallopeptides of the formulas given in Table 1 were prepared, with the metallopeptides complexed with rhenium using the rhenium transfer agent ReOCl3(PPh3)2 in the presence of 1,8-Diazabicyclo[5,4,0] undec-7-ene as a base, as disclosed in International Application PCT/US00/16396, filed Jun. 14, 2000, Melanocortin Metallopeptide Constructs, Combinatorial Libraries and Applications, incorporated by reference herein. Affinities of compounds were measured using membranes from HEK-293 cells containing cloned human melanocortin receptor subtypes 3, 4 and 5. MC1-R membranes were isolated from B16—F10 mouse melanoma cells. The assay tube also contained a chosen concentration of the test peptide of this invention, complexed to a rhenium metal ion as indicated, for determining its efficacy in inhibiting the binding of ^125I-NDP-α-MSH to its receptor. Non-specific binding was measured by complete inhibition of binding of ^125I-NDP-α-MSH in the assay with the presence of 1 μM α-MSH. 100% specific binding was defined as the difference in radioactivity (cpm) bound to cell membranes in the absence and presence of 1 μM α-MSH. The cpm obtained in presence of test compounds were normalized with respect to 100% specific binding to determine the percent inhibition of ^125I-NDP-α-MSH binding.
(§2) Peptide sequences set forth in Table 6 were prepared using conventional synthetic means. The resulting sequences were rhenium-complexed to form metallopeptides, with the metallopeptides complexed with rhenium using the rhenium transfer agent ReOCl3(PPh3)2 in the presence of 1,8-Diazabicyclo[5,4,0] undec-7-ene as a base. Percent inhibition was determined as in Example 1 using the Re-complexed metallopeptides, using the same methods as described therein. All measures are means of triplicate determinations.

MC4-R = target: T2, MC4-R (Homo sapiens, UniProt P32245); test: Competitive binding assay: inhibition of 125I-NDP-α-MSH binding to HEK-293 membranes with cloned human receptor subtype 4; conditions: Table 6; 1 μM; mean of triplicate
T2 construct: expressed in transfected cells; host or cells: HEK-293
Protocol: as §1, §2

hMC5-R = target: T3, hMC5-R (Homo sapiens, UniProt P33032); test: Competitive binding assay: inhibition of 125I-NDP-α-MSH binding to HEK-293 membranes with cloned human receptor subtype 5; conditions: Table 6; 1 μM; mean of triplicate
T3 construct: expressed in transfected cells; host or cells: HEK-293
Protocol: as §1, §2

hMC2-R = target: T4, hMC2-R (Homo sapiens, UniProt P41968); test: Competitive binding assay of additional compounds, Table 6 hMC2-R; conditions: 1 μM, mean of triplicate
T4 construct: expressed in transfected cells; host or cells: HEK-293
Protocol: [The source words this procedure for another target and reports this target under the same test.] as §1, §2

T3 sequence (P33032 whole entry): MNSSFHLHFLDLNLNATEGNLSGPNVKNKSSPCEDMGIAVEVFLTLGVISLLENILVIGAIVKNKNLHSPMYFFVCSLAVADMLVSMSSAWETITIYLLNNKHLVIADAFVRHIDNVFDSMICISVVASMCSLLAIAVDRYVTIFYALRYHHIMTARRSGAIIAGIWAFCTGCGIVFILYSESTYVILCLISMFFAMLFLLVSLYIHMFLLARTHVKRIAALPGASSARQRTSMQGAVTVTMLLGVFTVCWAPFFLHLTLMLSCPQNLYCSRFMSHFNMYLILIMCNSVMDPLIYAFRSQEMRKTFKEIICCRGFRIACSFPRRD
T2 sequence (P32245 whole entry): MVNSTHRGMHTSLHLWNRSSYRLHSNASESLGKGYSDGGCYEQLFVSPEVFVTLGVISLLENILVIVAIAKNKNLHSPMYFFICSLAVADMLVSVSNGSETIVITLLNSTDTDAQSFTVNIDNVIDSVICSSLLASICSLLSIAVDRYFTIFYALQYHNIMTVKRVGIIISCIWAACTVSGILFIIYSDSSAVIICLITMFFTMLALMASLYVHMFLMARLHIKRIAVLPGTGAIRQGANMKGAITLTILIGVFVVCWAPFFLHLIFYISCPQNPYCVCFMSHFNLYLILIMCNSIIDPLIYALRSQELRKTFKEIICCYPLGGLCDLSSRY
T4 sequence (P41968 whole entry): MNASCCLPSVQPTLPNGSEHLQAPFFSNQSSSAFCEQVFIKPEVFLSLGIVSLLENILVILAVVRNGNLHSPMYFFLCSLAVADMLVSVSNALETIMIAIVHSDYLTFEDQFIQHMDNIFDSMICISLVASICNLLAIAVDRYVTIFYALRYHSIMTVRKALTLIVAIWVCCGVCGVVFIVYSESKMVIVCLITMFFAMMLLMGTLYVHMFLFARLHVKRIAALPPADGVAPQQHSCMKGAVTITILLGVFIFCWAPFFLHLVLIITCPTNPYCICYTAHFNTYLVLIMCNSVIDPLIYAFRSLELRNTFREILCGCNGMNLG
T1 sequence (Q01727 whole entry): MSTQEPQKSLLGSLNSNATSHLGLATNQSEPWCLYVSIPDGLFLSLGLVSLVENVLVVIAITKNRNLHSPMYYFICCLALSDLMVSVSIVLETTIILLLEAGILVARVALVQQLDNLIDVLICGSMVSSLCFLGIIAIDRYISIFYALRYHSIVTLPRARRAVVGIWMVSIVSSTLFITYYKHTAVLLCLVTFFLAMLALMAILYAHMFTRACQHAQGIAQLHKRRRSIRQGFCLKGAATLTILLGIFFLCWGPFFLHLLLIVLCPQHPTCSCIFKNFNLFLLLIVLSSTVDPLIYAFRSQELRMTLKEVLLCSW

| Substance | % Inhibition of Binding MC1-R (MC1-R) | % Inhibition of Binding hMC4-R (MC4-R) | % Inhibition of Binding hMC5-R (hMC5-R) | % Inhibition of Binding hMC2-R (hMC2-R) |
| --- | --- | --- | --- | --- |
| 1-amino-1-cyclohexane carboxyl-D-Phe-Arg-Cys-Trp-NH2 ([Ac6c][dF]RCW-NH2; N-terminus assumed; SMILES N=C(N)NCCC[C@H](NC(=O)[C@@H](Cc1ccccc1)NC(=O)C1(N)CCCCC1)C(=O)N[C@@H](CS)C(=O)N[C@@H](Cc1c[nH]c2ccccc12)C(N)=O) | 92% | 14% | 65% | 0% |
| 1-amino-1-cyclohexane carboxyl-D-Phe-Arg-Trp-Cys-NH2 ([Ac6c][dF]RWC-NH2; N-terminus assumed; SMILES N=C(N)NCCC[C@H](NC(=O)[C@@H](Cc1ccccc1)NC(=O)C1(N)CCCCC1)C(=O)N[C@@H](Cc1c[nH]c2ccccc12)C(=O)N[C@@H](CS)C(N)=O) | 11% | 1% | 16% | 0% |
| 1-amino-1-cyclopentane carboxyl-D-Phe-Arg-Cys-Trp-NH2 ([Ac5c][dF]RCW-NH2; N-terminus assumed; SMILES N=C(N)NCCC[C@H](NC(=O)[C@@H](Cc1ccccc1)NC(=O)C1(N)CCCC1)C(=O)N[C@@H](CS)C(=O)N[C@@H](Cc1c[nH]c2ccccc12)C(N)=O) | 78% | 16% | 60% | 0% |
| 1-amino-1-cyclopentane carboxyl-D-Phe-Arg-Trp-Cys-NH2 ([Ac5c][dF]RWC-NH2; N-terminus assumed; SMILES N=C(N)NCCC[C@H](NC(=O)[C@@H](Cc1ccccc1)NC(=O)C1(N)CCCC1)C(=O)N[C@@H](Cc1c[nH]c2ccccc12)C(=O)N[C@@H](CS)C(N)=O) | 23% | 0% | 14% | 7% |
| 3′-(4′-Hydroxyphenyl)propionyl-D-Phe-Arg-Cys-Trp-NH2 (Desaminotyrosyl-[dF]RCW-NH2; not fully specified; printed as 3′-(4′-Hydroxyphenyl)propionyl-D-Phe-Arg-Cys-Trp-NH2) | 7% | 0% | 14% | 0% |
| 3′-(4′-Hydroxyphenyl)propionyl-HiS-D-Phe-Arg-Cys-Trp-NH2 (Desaminotyrosyl-H[dF]RCW-NH2; not fully specified; printed as 3′-(4′-Hydroxyphenyl)propionyl-HiS-D-Phe-Arg-Cys-Trp-NH2) | 76% | 0% | 21% | 0% |
| 3′-Br Phenyl acetyl-Arg-Arg-D-Bip-Cys-Bip-NH2 | 56% | 68% | 92% | 46% |
| 3′-Br Phenyl acetyl-Arg-Arg-D-Bip-Cys-Trp-NH2 | 91% | 77% | 99% | 83% |
| 3′-Br Phenyl acetyl-Arg-Arg-D-Phe(3′-Cl)-Cys-Nal 1′-NH2 | 61% | 62% | 83% | 49% |
| 3′-Br Phenyl acetyl-Arg-Arg-D-Phe(3′-Cl)-Cys-Nal 2′-NH2 | 65% | 75% | 89% | 68% |
| 3′-Br Phenyl acetyl-Arg-Arg-D-Phe(4′-CF3)-Cys-Trp-NH2 | 72% | 89% | 99% | 94% |
| 3′-Br Phenyl acetyl-Arg-Arg-D-Phe(4′-Cl)-Cys-Bip-NH2 | 69% | 78% | 86% | 60% |
| 3′-Br Phenyl acetyl-Arg-Arg-D-Phe(4′-Cl)-Cys-Nal 1′-NH2 | 90% | 84% | 89% | 85% |
| 3′-Br Phenyl acetyl-Arg-Arg-D-Phe(4′-Me)-Cys-NH2 | 94% and 84% | 99% and 93% | 88% | 87% |
| 3′-Br Phenyl acetyl-Arg-Arg-D-Phe(4′-Me)-Cys-Trp-NH2 | 93% and 85% | 98% and 82% | 94% | 86% |
| 3′-Br Phenyl acetyl-Lys-Ala-D-Phe(2′-Cl)-Cys-Trp-NH2 | 9% | 34% | 44% | 19% |
| 3′-Br Phenyl acetyl-Lys-Ala-D-Phe(4′-CF3)-Cys-Trp-NH2 | 4% and 10% | 96% and 74% | 83% | 77% |
| 3′-Br-Phenylacetyl-His-D-Phe(4′-Cl)-Trp-Cys-NH2 | 41% | 3% | 40% | 15% |
| 3′-Br-Phenylacetyl-His-Gly-D-Phe(4′-Cl)Trp-Cys-NH2 | 33% | 2% | 16% | 14% |
| 3′-Bromo phenyl acetyl-Arg-Ala-D-Phe(4′-Cl)-Cys-NH2 | 90% | 59% | 15% | 47% |
| 3′-Bromo phenyl acetyl-Arg-Ala-D-Phe(4′-Cl)-Cys-Trp-NH2 | 8% | 80% | 86% | 35% |
| 3′-Bromo phenyl acetyl-Arg-His-D-Phe(4′-Cl)-Cys-NH2 | 47% | 15% | 0% | 11% |
| 3′-Bromo phenyl acetyl-Arg-Thr(Bzl)-D-Phe(4′-Cl)-Cys-NH2 | 16% | 6% | 21% | 5% |
| 3′-Bromo phenyl acetyl-Arg-Thr-D-Phe(4′-Cl)-Cys-NH2 | 8% | 1% | 2% | 6% |
| 3′-Bromo phenyl acetyl-Arg-Trp-D-Phe(4′-Cl)-Cys-NH2 | 5% | 17% | 21% | 0% |
| 3′-Bromo phenyl acetyl-Lys-Ala-D-Phe(3′-Cl)-Cys-Trp-NH2 | 4% | 38% | 60% | 13% |
